Target: T1, NAPE-PLD (Homo sapiens, UniProt Q6IQ20)
T1 construct: made in house; host or cells: baculovirus/insect cells, pDEST8.1 vector; purified by metal chelating chromatography
T1 sequence (Q6IQ20 with tags, fused parts or gaps): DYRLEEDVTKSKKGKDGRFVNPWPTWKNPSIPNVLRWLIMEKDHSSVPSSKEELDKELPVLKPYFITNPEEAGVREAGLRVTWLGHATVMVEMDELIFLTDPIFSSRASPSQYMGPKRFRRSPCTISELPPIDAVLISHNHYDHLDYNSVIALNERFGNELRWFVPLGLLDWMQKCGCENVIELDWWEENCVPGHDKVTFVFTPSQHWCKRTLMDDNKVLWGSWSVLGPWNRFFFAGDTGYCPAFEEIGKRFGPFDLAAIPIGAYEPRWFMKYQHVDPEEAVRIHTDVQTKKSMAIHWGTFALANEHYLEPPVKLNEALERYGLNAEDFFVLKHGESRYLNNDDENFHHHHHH
Experiment: NAPE-PLD PED6 fluorescence assay, Km determination
Assay type: biochemical
Details: substrate PED6 with NAPE-PLD; FIG. 8
Description: General assay conditions use the following final concentrations of the following material: NAPE-PLD at 14 nM, PED6 (substrate) at 10 μM, test compounds at 10 μM, DMSO at 1%. PED6 is purchased (see Table 1) as a lyophilized powder and stored at −20° C. A fresh substrate solution should be prepared daily. 1 mg of PED6 is dissolved in 0.88 ml of ethyl acetate and diluted into 43.12 ml assay buffer to make is a 20 μM working solution. PED6 must be kept out of direct light, as it is light sensitive.
Test compounds are diluted in an appropriate buffer. A non-limiting example is 50 mM Tris-HCl, pH 8.0, the buffer may contain DMSO, for instance, 10% DMSO. Assay buffer was 50 mM Tris-HCl, pH 8.0, 0.05% Triton X-100 and stop solution is 0.4 M HCl, 0.05% Triton X-100.
Order of addition of reagents and equipment used: • 1) Dilute enzyme (NAPE-PLD, 22 μM) to 28 nM in assay buffer. • 2) Prepare substrate (20 μM in assay buffer). • 3) Add 10 μl NAPE-PLD to assay plate using FLEXDROP. • 4) Add 2 μl compound (from compound plate) to appropriate wells of assay plate using Cy-Bio. • 5) Incubate plates, covered, at room temperature for 30 minutes (compound preincubation). • 6) Add 10 μl PED6 to assay plate using FLEXDROP. • 7) Incubate plates, covered, at room temperature for 30 minutes (enzyme reaction) • 8) Terminate the reaction by adding 20 μl of stop solution, using FLEXDROP • 9) Read on LJL Acquest. […]

Question: With `CCCCCCCCCCCCCCCC(=O)OC[C@H](COP(=O)(O)OCCNC(=O)CCCCCNc1ccc([N+](=O)[O-])cc1[N+](=O)[O-])OC(=O)CCCCC1=[N+]2C(=Cc3c(C)cc(C)n3[B-]2(F)F)C=C1` [PED6] as the molecule, how does the Km read?
Answer: 3.9 µM
